# In PMC8201443 (Journal of Medicinal Chemistry, 2021):
# “Also recorded” adds a separate entry of the source. Read-outs that look alike come from different tables or passages of the source.
# Experiments:
# [1] = system: MV4-11 cells; assay: Cell viability; format: cell-based, human; conditions: for activity in cells (in words): cellular assays of Table 2; for EC50: Homo sapiens
# [2] = molecular target: GSPT1 (Homo sapiens, UniProt P15170+Q96SW2); assay: Immunoblot, GSPT1 degradation in MV4-11 cells; format: cell-based; conditions: MV4-11, 4 h
# GSPT1, sequence (P15170 1-637 isoform P15170-3): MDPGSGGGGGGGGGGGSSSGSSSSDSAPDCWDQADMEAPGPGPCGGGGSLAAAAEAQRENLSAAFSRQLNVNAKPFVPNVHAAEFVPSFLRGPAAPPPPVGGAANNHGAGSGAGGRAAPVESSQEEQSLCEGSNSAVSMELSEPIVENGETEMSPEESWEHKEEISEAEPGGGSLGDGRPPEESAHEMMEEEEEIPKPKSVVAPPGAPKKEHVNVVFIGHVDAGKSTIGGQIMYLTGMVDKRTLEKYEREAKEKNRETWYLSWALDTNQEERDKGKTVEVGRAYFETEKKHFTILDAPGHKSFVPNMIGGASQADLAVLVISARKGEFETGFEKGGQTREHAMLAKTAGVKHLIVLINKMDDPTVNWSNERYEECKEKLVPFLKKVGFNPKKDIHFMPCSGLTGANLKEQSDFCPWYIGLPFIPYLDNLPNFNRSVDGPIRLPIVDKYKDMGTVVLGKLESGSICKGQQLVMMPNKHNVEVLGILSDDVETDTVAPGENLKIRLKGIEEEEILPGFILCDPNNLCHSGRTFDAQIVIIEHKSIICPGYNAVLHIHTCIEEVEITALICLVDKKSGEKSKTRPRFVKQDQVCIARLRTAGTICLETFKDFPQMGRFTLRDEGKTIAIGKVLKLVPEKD
# GSPT1, sequence (Q96SW2 whole entry): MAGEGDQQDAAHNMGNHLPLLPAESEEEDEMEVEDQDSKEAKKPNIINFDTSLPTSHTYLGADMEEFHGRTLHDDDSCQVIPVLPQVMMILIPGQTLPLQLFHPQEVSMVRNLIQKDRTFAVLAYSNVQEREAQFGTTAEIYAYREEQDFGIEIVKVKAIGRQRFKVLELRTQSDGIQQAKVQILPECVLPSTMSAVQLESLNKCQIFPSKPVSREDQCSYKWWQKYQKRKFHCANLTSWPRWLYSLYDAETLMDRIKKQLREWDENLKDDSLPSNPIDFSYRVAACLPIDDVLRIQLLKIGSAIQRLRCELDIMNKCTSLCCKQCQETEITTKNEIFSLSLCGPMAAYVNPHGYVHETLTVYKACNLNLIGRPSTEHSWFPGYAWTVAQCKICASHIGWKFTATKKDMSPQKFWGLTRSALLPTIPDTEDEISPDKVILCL
# GSPT1, sequence (Q16531 whole entry partner): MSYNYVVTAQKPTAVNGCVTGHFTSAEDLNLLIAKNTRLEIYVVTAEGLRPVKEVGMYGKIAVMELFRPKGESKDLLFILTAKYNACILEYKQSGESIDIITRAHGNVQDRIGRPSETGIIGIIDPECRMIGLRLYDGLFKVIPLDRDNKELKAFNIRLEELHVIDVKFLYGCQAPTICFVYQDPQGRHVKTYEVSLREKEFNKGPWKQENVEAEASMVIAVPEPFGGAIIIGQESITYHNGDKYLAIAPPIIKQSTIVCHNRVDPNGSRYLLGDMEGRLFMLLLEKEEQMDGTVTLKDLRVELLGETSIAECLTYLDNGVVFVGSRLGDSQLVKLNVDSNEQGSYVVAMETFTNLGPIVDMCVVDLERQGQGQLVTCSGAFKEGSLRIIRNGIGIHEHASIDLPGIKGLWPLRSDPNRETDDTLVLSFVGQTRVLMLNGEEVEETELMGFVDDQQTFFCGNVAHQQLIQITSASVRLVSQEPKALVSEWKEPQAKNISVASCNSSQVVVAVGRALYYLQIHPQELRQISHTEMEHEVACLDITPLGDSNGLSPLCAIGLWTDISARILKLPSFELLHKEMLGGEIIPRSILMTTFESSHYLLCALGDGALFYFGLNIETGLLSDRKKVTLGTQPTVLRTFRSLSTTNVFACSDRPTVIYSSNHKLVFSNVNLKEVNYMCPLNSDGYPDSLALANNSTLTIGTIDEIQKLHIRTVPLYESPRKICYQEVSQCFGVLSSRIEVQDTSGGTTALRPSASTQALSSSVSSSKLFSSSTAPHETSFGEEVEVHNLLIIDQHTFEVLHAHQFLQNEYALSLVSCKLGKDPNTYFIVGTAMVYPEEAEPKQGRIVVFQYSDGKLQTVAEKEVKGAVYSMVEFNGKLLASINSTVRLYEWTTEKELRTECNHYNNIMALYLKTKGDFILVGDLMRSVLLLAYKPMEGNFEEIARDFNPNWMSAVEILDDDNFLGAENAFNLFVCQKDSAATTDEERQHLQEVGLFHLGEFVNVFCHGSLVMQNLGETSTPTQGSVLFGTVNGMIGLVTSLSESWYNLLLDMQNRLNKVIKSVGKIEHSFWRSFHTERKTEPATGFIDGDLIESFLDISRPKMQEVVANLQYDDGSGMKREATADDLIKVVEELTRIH
# [3] = molecular target: T1, IKZF1 (Homo sapiens, UniProt Q13422); conditions: for IKZF1 protein levels in GSPT1(G575N) mutant cell line (in words): MV4-11 GSPT1(G575N)-FLAG cells, 24 h; for IKZF1 degradation after 4 h (in words): MV4-11 cells, any concentration tested
# T1 sequence (Q96SW2 whole entry partner): as the sequence (Q96SW2 whole entry) above
# T1 sequence (Q16531 whole entry partner): as the sequence (Q16531 whole entry partner) above
# T1 sequence (Q13422 whole entry): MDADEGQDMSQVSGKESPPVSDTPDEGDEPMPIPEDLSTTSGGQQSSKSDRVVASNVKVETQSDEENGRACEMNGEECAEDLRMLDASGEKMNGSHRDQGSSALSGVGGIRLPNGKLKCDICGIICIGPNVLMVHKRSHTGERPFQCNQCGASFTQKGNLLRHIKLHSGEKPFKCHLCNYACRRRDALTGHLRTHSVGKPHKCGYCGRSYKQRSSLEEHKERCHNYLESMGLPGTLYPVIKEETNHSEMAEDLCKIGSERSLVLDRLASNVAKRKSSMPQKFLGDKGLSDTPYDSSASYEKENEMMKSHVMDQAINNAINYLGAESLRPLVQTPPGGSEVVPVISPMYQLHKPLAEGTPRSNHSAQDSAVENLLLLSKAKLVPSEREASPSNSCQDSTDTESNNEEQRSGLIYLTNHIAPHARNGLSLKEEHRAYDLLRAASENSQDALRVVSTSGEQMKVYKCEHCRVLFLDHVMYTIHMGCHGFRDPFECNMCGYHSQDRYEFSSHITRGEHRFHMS
# [4] = system: MV4-11, MHH-CALL-4, HD-MB03, MB002 and MB004 cells; format: cell-based, human
# [5] = system: caspase 3/7; assay: Caspase-Glo 3/7 activity assay in MV4-11 cells; format: cell-based, human; conditions: MV4-11, 10 and 100 nM; timepoints 4, 8 and 24 h
# [6] = molecular target: T1, IKZF1; assay: Immunoblot, IKZF1 degradation in MHH-CALL-4 cells; format: cell-based; conditions: any concentration tested
# [7] = molecular target: GSPT1(G575N) (Homo sapiens, UniProt P15170, G437N); format: cell-based
# GSPT1(G575N), sequence (Q96SW2 whole entry partner): as the sequence (Q96SW2 whole entry) above
# GSPT1(G575N), sequence (Q16531 whole entry partner): as the sequence (Q16531 whole entry partner) above
# GSPT1(G575N), sequence (P15170 1-637 isoform P15170-3 G575N): as the sequence (P15170 1-637 isoform P15170-3) above, with G575N counted along it
# [8] = molecular target: IKZF1(ZF2)-CRBN/DDB1 (Homo sapiens, UniProt Q96SW2); assay: AlphaScreen assay, IKZF1; format: biochemical; conditions: dose response up to highest concentration
# IKZF1(ZF2)-CRBN/DDB1, sequence (Q96SW2 40-442 limits assumed): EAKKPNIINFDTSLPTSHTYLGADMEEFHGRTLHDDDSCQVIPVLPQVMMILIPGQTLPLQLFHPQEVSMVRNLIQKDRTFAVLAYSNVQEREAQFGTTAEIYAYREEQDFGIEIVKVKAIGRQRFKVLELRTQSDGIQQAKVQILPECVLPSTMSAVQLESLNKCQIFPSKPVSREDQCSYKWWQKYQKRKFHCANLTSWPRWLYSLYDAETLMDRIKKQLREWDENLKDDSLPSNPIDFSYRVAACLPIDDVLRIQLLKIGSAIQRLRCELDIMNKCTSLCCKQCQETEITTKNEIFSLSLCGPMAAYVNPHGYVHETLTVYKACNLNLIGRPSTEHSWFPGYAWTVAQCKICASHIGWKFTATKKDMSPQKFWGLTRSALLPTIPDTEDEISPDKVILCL
# IKZF1(ZF2)-CRBN/DDB1, sequence (Q16531 whole entry partner): as the sequence (Q16531 whole entry partner) above
# [9] = system: MV4-11 cells; assay: Lenalidomide competition assay, MV4-11 viability; format: cell-based, human; conditions: MV4-11, co-treatment with 10 μM lenalidomide, 3 days
# [10] = system: MV4-11 cells stably expressing GSPT1(G575N)-FLAG; format: cell-based, human
# [11] = system: MB002 cells; assay: Cell viability; format: cell-based; conditions: Homo sapiens, MB002, 72 h, read-out: EC50 (nM) MB002
# [12] = system: CRBN knockout MV4-11 cells; assay: Cell viability, wild-type vs CRBN knockout MV4-11 cells; format: cell-based, human; conditions: 3 days
# [13] = molecular target: hGSPT1-HiBit (Homo sapiens, UniProt P15170+Q96SW2); assay: hGSPT1 HiBiT assay in HEK293 cells; format: cell-based; conditions: SAR discussion of Table 2
# hGSPT1-HiBit, sequence (P15170 1-637 isoform P15170-3): as the sequence (P15170 1-637 isoform P15170-3) above
# hGSPT1-HiBit, sequence (Q96SW2 whole entry): as the sequence (Q96SW2 whole entry) above
# hGSPT1-HiBit, sequence (Q16531 whole entry partner): as the sequence (Q16531 whole entry partner) above
# [14] = more potent than lenalidomide; cited from earlier work
# [15] = Liver microsomes stability assay, mouse; format: in vitro ADME; conditions: CD-1, mouse, pH 7.4
# [16] = Liver microsomes stability assay, human; format: in vitro ADME; conditions: pooled liver microsomes, pH 7.4
# [17] = system: MV4-11 cells; assay: TMT quantitative proteomics in MV4-11 cells; format: cell-based, human; conditions: 1 μM, 4 h
structure (smiles),measurement,setting,value
"Cc1ccccc1S(=O)(=O)Nc1ccc2c(c1)C(=O)N(C1CCC(=O)NC1=O)C2=O (stereo not shown) [compound 13, N-(2-(2,6-Dioxopiperidin-3-yl)-1,3-dioxoisoindolin-5-yl)-2-methylbenzenesulfonamide]",activity in cells (in words),[1],lack of potent cell activity
"O=C1CCC(N2C(=O)c3ccc(NS(=O)(=O)c4cccc(OC(F)(F)F)c4)cc3C2=O)C(=O)N1 (stereo not shown) [compound 10, N-(2-(2,6-Dioxopiperidin-3-yl)-1,3-dioxoisoindolin-5-yl)-3-(trifluoromethoxy)benzenesulfonamide]",effect on GSPT1 protein level (in words),[2],no effects on the protein levels
same,effect on IKZF1 protein level (in words),"[3]; immunoblot, MV4-11, 4 h",no effects on the protein levels
same,activity in cells (in words),[1],no activity in cells
Nc1cccc2c1C(=O)N(C1CCC(=O)NC1=O)C2=O (stereo not shown) [pomalidomide],antiproliferative effect across the five cell lines (in words),[4],insensitive
"O=C1CCC(N2C(=O)c3ccc(NS(=O)(=O)c4cccc(Cl)c4)cc3C2=O)C(=O)N1 (stereo not shown) [compound 15, 3-Chloro-N-(2-(2,6-dioxopiperidin-3-yl)-1,3-dioxoisoindolin-5-yl)benzenesulfonamide]",activity in cells (in words),[1],lack of potent cell activity
"Cc1c(Cl)cccc1S(=O)(=O)Nc1ccc2c(c1)C(=O)N(C1CCC(=O)NC1=O)C2=O (stereo not shown) [compound 7, 3-Chloro-N-(2-(2,6-dioxopiperidin-3-yl)-1,3-dioxoisoindolin-5-yl)-2-methylbenzenesulfonamide]",timepoint at which caspase activation was observed,[5],24 h
same,IKZF1 degradation after 4 h (in words),[6],did not significantly degrade IKZF1
same,IKZF1 protein levels in GSPT1(G575N) mutant cell line (in words),[3],unaffected
same,IKZF1 degradation after 4 h (in words),[3],did not significantly degrade IKZF1
same,EC50,"[1]; MV4-11, 72 h, read-out: EC50 (nM) MV4-11",52 nM
same,EC50,"[1]; MV4-11, read-out: MV4-11 EC50 (μM)",52 nM
same,degradation of GSPT1(G575N) mutant (in words),[7],not degraded
same,"IKZF1(ZF2)-CRBN/DDB1 complex formation, AlphaScreen signal (in words)",[8],neither 6 nor 7 showed a signal; also recorded: showed no effect even at the highest concentration
same,antiproliferative effect in the presence of lenalidomide (in words),[9],abrogating the antiproliferative effects
same,antiproliferation effect in cells expressing GSPT1(G575N) (in words),[10],completely abrogated
same,EC50,[11],5010 nM
same,antiproliferative activity in the absence of CRBN (in words),[12],abolished
same,antiproliferative effect across the five cell lines (in words),[4],demonstrated antiproliferative activities across the panel
"O=C1CCC(N2C(=O)c3ccc(NS(=O)(=O)c4ccccc4C(F)(F)F)cc3C2=O)C(=O)N1 (stereo not shown) [compound 14, N-(2-(2,6-Dioxopiperidin-3-yl)-1,3-dioxoisoindolin-5-yl)-2-(trifluoromethyl)benzenesulfonamide]",GSPT1 degradation (in words),[13],potent degrader of GSPT1
O=C1CCC(N2C(=O)c3ccccc3C2=O)C(=O)N1 (stereo not shown) [thalidomide],antiproliferative effect across the five cell lines (in words),[4],insensitive
"O=C1CCC(N2C(=O)c3ccc(NS(=O)(=O)c4ccc(OC(F)(F)F)cc4)cc3C2=O)C(=O)N1 (stereo not shown) [compound 11, N-(2-(2,6-Dioxopiperidin-3-yl)-1,3-dioxoisoindolin-5-yl)-4-(trifluoromethoxy)benzenesulfonamide]",activity in cells (in words),[1],no activity in cells
"O=C1CC[C@H](N2Cc3c(OCc4ccc(CN5CCOCC5)cc4)cccc3C2=O)C(=O)N1 [CC-220, reference compound]","IKZF1(ZF2)-CRBN/DDB1 complex formation, AlphaScreen signal (in words)",[8],strong dose response; also recorded: dose-dependent AlphaScreen signal
same,potency in cells relative to lenalidomide,[14],10 fold
"COc1ccccc1S(=O)(=O)Nc1ccc2c(c1)C(=O)N(C1CCC(=O)NC1=O)C2=O (stereo not shown) [compound 12, N-(2-(2,6-Dioxopiperidin-3-yl)-1,3-dioxoisoindolin-5-yl)-2-methoxybenzenesulfonamide]",activity in cells (in words),[1],inactive in cells
Nc1cccc2c1CN(C1CCC(=O)NC1=O)C2=O (stereo not shown) [lenalidomide],antiproliferative effect across the five cell lines (in words),[4],insensitive
Cc1ccc(NC(=O)NCc2ccc3c(c2)CN(C2CCC(=O)NC2=O)C3=O)cc1Cl (stereo not shown) [CC-885],antiproliferative effect across the five cell lines (in words),[4],displayed antiproliferative effects in all five cell lines
"Cc1ccc(S(=O)(=O)Nc2ccc3c(c2)C(=O)N(C2CCC(=O)NC2=O)C3=O)cc1Cl (stereo not shown) [compound 9, 3-Chloro-N-(2-(2,6-dioxopiperidin-3-yl)-1,3-dioxoisoindolin-5-yl)-4-methylbenzenesulfonamide]",activity in cells (in words),[1],no effect in cellular assays
"O=C1CCC(N2C(=O)c3ccc(NS(=O)(=O)c4ccccc4)cc3C2=O)C(=O)N1 (stereo not shown) [compound 8, N-(2-(2,6-Dioxopiperidin-3-yl)-1,3-dioxoisoindolin-5-yl)benzenesulfonamide]",activity in cells (in words),[1],inactive
"O=C1CCC(N2C(=O)c3ccc(NS(=O)(=O)c4ccccc4OC(F)(F)F)cc3C2=O)C(=O)N1 (stereo not shown) [compound 6, N-(2-(2,6-Dioxopiperidin-3-yl)-1,3-dioxoisoindolin-5-yl)-2-(trifluoromethoxy)benzenesulfonamide]",timepoint at which caspase activation was observed,[5],8 h
same,IKZF1 degradation after 4 h (in words),[6],did not significantly degrade IKZF1
same,"CLint scaled at 4 h, 10 µM",[15],12 mL/min/kg
same,IKZF1 protein levels in GSPT1(G575N) mutant cell line (in words),[3],unaffected
same,IKZF1 degradation after 4 h (in words),[3],did not significantly degrade IKZF1
same,activity in cells (in words),[1],most potent compound in the series
same,degradation of GSPT1(G575N) mutant (in words),[7],not degraded
same,"IKZF1(ZF2)-CRBN/DDB1 complex formation, AlphaScreen signal (in words)",[8],neither 6 nor 7 showed a signal; also recorded: showed no effect even at the highest concentration
same,antiproliferative effect in the presence of lenalidomide (in words),[9],abrogating the antiproliferative effects
same,antiproliferation effect in cells expressing GSPT1(G575N) (in words),[10],completely abrogated
same,"CLint scaled at 4 h, 10 µM",[16],4 mL/min/kg
same,EC50,[11],726 nM
same,antiproliferative activity in the absence of CRBN (in words),[12],abolished
same,antiproliferative effect across the five cell lines (in words),[4],demonstrated antiproliferative activities across the panel
same,abundance of CNTNAP4 and SERPINF1 (in words),[17],less pronounced but statistically significant reductions
same,abundance of IMiD neosubstrates IKZF1/3 and CK1α (in words),[17],not affected
same,proteins most reduced in abundance (in words),[17]; 8927 quantified proteins,reduced most potently and selectively abundance of GSPT1 and GSPT2
